Results reported in US20060135393A1, “Mild cleansing composition” (KPSS-Kao Professional Salon Services GmbH, priority 2004, published 2006).

Test system: male and female volunteers backs
Test: Occlusive multiple patch test for skin irritation potential (Hayes Chamber)
Type: in vivo, human
Conditions: shampoos diluted to 10% by weight in tap water; 25 μl per chamber; 3 applications, 72 hours total skin contact; visual scoring by dermatologist, 0 (no apparent cutaneous involvement) to 4 (severe erythema with edema)
Description: The above composition and the comparative compositions (see below) were tested for their skin irritation potential in an occlusive patch test using male and female volunteers backs aging 45+−14 years using Hayes Chamber with 25 μl volume. In detail, the shampoo compositions to be tested were diluted to a shampoo concentration of 10% by weight in tap water and homogeneously mixed. Using a laboratory calibrated pipette 25 μl of the solutions were filled into the chambers and the samples were patched onto the backs of the volunteers. The application was repeated 3 times (the duration of skin contact in total is 72 hours). After removal of the last patch (after 72 hrs), the application areas were evaluated visually by a dermatologist. The evaluation scores were as follows: [table] Such kind of tests are offered by several dermatological institutes or dermatologists having private clinics and the tests of the present invention were as well carried out in a dermatological institutes in Germany.

SMILES: CCCCCCCCCCCCOS(=O)(=O)[O-].[Na+] [1% SDS* solution, sodium dodecyl sulfate]
- Irritation score: 1.99
